Values joined by “and” are separate entries in the source; they are usually repeats but may differ in a detail not shown here. Equal values may be shown once. Numbers after ± are expanded uncertainties.
What was measured:
[1] = xn = mol fraction of the nth substance listed; conditions: 100 kPa, Liquid, x2 = 0; for viscosity: Capillary tube (Ostwald / Ubbelohde) method; for mass density: Vibrating tube method
[2] = 293.15 K; 100 kPa; Liquid; Capillary tube (Ostwald / Ubbelohde) method
[3] = 293.15 K; 100 kPa; Liquid; Vibrating tube method
[4] = 298.15 K; 100 kPa; Liquid; Capillary tube (Ostwald / Ubbelohde) method
[5] = 298.15 K; 100 kPa; Liquid; Vibrating tube method
[6] = 303.15 K; 100 kPa; Liquid; Capillary tube (Ostwald / Ubbelohde) method
[7] = 303.15 K; 100 kPa; Liquid; Vibrating tube method
[8] = 308.15 K; 100 kPa; Liquid; Capillary tube (Ostwald / Ubbelohde) method
[9] = 308.15 K; 100 kPa; Liquid; Vibrating tube method
[10] = 313.15 K; 100 kPa; Liquid; Capillary tube (Ostwald / Ubbelohde) method
[11] = 313.15 K; 100 kPa; Liquid; Vibrating tube method
[12] = 318.15 K; 100 kPa; Liquid; Capillary tube (Ostwald / Ubbelohde) method
[13] = 318.15 K; 100 kPa; Liquid; Vibrating tube method
[14] = 323.15 K; 100 kPa; Liquid; Capillary tube (Ostwald / Ubbelohde) method
[15] = 323.15 K; 100 kPa; Liquid; Vibrating tube method

| Compound | viscosity [2] [mPa·s] | mass density [3] [kg/m3] | viscosity [4] [mPa·s] | mass density [5] [kg/m3] | viscosity [6] | mass density [7] [kg/m3] | viscosity ([1]; 293.15 K) [mPa·s] | mass density ([1]; 293.15 K) [kg/m3] | viscosity ([1]; 298.15 K) [mPa·s] | mass density ([1]; 298.15 K) [kg/m3] | viscosity ([1]; 303.15 K) [mPa·s] | mass density ([1]; 303.15 K) [kg/m3] | viscosity ([1]; 308.15 K) [mPa·s] | mass density ([1]; 308.15 K) [kg/m3] | viscosity ([1]; 313.15 K) [mPa·s] | mass density ([1]; 313.15 K) [kg/m3] | viscosity ([1]; 318.15 K) [mPa·s] | mass density ([1]; 318.15 K) [kg/m3] | viscosity ([1]; 323.15 K) [mPa·s] | mass density ([1]; 323.15 K) [kg/m3] | also measured |
| --- | --- | --- | --- | --- | --- | --- | --- | --- | --- | --- | --- | --- | --- | --- | --- | --- | --- | --- | --- | --- | --- |
| CCCCn1cc[n+](C)c1C.O=S(=O)([N-]S(=O)(=O)C(F)(F)F)C(F)(F)F | 133.59 ± 3.4 | 1423.72 ± 11 | 101.34 ± 2.4 | 1419.13 ± 11 | 77.86 ± 1.7 mPa·s | 1414.52 ± 11 |  |  |  |  |  |  |  |  |  |  |  |  |  |  | viscosity [8]: 61.73 ± 1.3 mPa·s; mass density [9]: 1409.91 ± 11 kg/m3; viscosity [10]: 49.77 ± 1 mPa·s; mass density [11]: 1405.31 ± 11 kg/m3; viscosity [12]: 40.7 ± 0.85 mPa·s; mass density [13]: 1400.7 ± 11 kg/m3; viscosity [14]: 33.69 ± 0.71 mPa·s; mass density [15]: 1396.13 ± 11 kg/m3 |
| CCC[n+]1ccn(C)c1C.O=S(=O)([N-]S(=O)(=O)C(F)(F)F)C(F)(F)F | 121.7 ± 3 | 1459.14 ± 12 | 92.8 ± 2.1 | 1454.44 ± 12 | 72.1 ± 1.6 mPa·s and 71.1 ± 1.5 mPa·s | 1449.72 ± 12 |  |  |  |  |  |  |  |  |  |  |  |  |  |  | viscosity [8]: 57.76 ± 1.2 mPa·s; mass density [9]: 1445 ± 12 kg/m3; viscosity [10]: 46.53 ± 0.98 mPa·s; mass density [11]: 1440.28 ± 12 kg/m3; viscosity [12]: 38.4 ± 0.81 mPa·s; mass density [13]: 1435.57 ± 11 kg/m3; viscosity [14]: 31.89 ± 0.67 mPa·s; mass density [15]: 1430.87 ± 11 kg/m3 |
| CCn1cc[n+](C)c1C.O=S(=O)([N-]S(=O)(=O)C(F)(F)F)C(F)(F)F |  |  |  |  |  |  |  |  |  |  |  |  |  |  |  |  |  |  |  |  | viscosity (293.15 K; 100 kPa; Metastable liquid; Capillary tube (Ostwald / Ubbelohde) method): 89.27 ± 2 mPa·s; mass density (293.15 K; 100 kPa; Metastable liquid; Vibrating tube method): 1496.32 ± 12 kg/m3; viscosity (298.15 K; 100 kPa; Metastable liquid; Capillary tube (Ostwald / Ubbelohde) method): 70.77 ± 1.5 mPa·s; mass density (298.15 K; 100 kPa; Metastable liquid; Vibrating tube method): 1491.47 ± 12 kg/m3; viscosity (303.15 K; 100 kPa; Capillary tube (Ostwald / Ubbelohde) method; Liquid): 57.02 ± 1.2 mPa·s; mass density (303.15 K; 100 kPa; Vibrating tube method; Liquid): 1486.67 ± 12 kg/m3; viscosity (308.15 K; 100 kPa; Capillary tube (Ostwald / Ubbelohde) method; Liquid): 46.6 ± 0.98 mPa·s; mass density (308.15 K; 100 kPa; Vibrating tube method; Liquid): 1481.87 ± 12 kg/m3; viscosity (313.15 K; 100 kPa; Capillary tube (Ostwald / Ubbelohde) method; Liquid): 38.62 ± 0.81 mPa·s; mass density (313.15 K; 100 kPa; Vibrating tube method; Liquid): 1477.09 ± 12 kg/m3; viscosity (318.15 K; 100 kPa; Capillary tube (Ostwald / Ubbelohde) method; Liquid): 32.33 ± 0.68 mPa·s; mass density (318.15 K; 100 kPa; Vibrating tube method; Liquid): 1472.32 ± 12 kg/m3; viscosity (323.15 K; 100 kPa; Capillary tube (Ostwald / Ubbelohde) method; Liquid): 27.06 ± 0.57 mPa·s; mass density (323.15 K; 100 kPa; Vibrating tube method; Liquid): 1467.56 ± 12 kg/m3 |
| O=C1CCCO1 [γ-butyrolactone] + CCCCn1cc[n+](C)c1C.O=S(=O)([N-]S(=O)(=O)C(F)(F)F)C(F)(F)F |  |  |  |  |  |  | 1.86 ± 0.04 | 1129.49 ± 9 | 1.71 ± 0.04 | 1124.59 ± 9 | 1.58 ± 0.03 | 1119.68 ± 9 | 1.47 ± 0.03 | 1114.78 ± 8.9 | 1.37 ± 0.03 | 1109.87 ± 8.9 | 1.28 ± 0.03 | 1104.96 ± 8.8 | 1.2 ± 0.03 | 1100.05 ± 8.8 |  |
| O=C1CCCO1 [γ-butyrolactone] + CCC[n+]1ccn(C)c1C.O=S(=O)([N-]S(=O)(=O)C(F)(F)F)C(F)(F)F |  |  |  |  |  |  | 1.86 ± 0.04 | 1129.49 ± 9 | 1.71 ± 0.04 | 1124.59 ± 9 | 1.58 ± 0.03 | 1119.68 ± 9 | 1.47 ± 0.03 | 1114.78 ± 8.9 | 1.37 ± 0.03 | 1109.87 ± 8.9 | 1.28 ± 0.03 | 1104.96 ± 8.8 | 1.2 ± 0.03 | 1100.05 ± 8.8 |  |
| O=C1CCCO1 [γ-butyrolactone] + CCn1cc[n+](C)c1C.O=S(=O)([N-]S(=O)(=O)C(F)(F)F)C(F)(F)F |  |  |  |  |  |  | 1.86 ± 0.04 | 1129.49 ± 9 | 1.71 ± 0.04 | 1124.59 ± 9 | 1.58 ± 0.03 | 1119.68 ± 9 | 1.47 ± 0.03 | 1114.78 ± 8.9 | 1.37 ± 0.03 | 1109.87 ± 8.9 | 1.28 ± 0.03 | 1104.96 ± 8.8 | 1.2 ± 0.03 | 1100.05 ± 8.8 |  |

Source: the NIST ThermoML archive (doi:10.1016/j.jct.2016.06.012)
